Data: patent US11311576B2, “Methods of use for CAR T cells” (Seattle Children's Hospital, priority 2018, dated 2022)

How the values were obtained:
HOS-FRα tumor = experiment: CRS toxicity and sodium fluorescein rescue in HOS-FRα tumor-bearing mice; format: in vivo; conditions: intravenous ~95 mg/kg on day 13, plasma 6 hours later, 35 million total CAR-T cells
Experimental: All animal care and use were performed according to NIH guidelines and in compliance with protocols approved by the Purdue University Animal Use and Care Committee. Female 4 to 5-week-old NOD/SCID gamma (NSG™) mice (stock number: 005557) were purchased from The Jackson Laboratory (Bar Harbor, Me.). Unless specifically indicated, all animals were maintained on a FA-deficient diet (TestDiet, St. Louis, Mo.) upon arrival and throughout the study. To establish subcutaneous xenografts, MDA-MB-231 and HOS-FRα were implanted in the right flank region at 2.5×10^6 and 1×10^6 cells per animal, respectively. For intravenous xenografts, THP1-FRb cells were inoculated at 5×10^6 cells per animal. Subcutaneous tumors were measured 2-3 times per week with a caliper and calculated using the ellipsoidal formula […]. […] All animal doses (CAR-T cells, EC17, sodium fluorescein) were given intravenously.
Depending on the CAR-T cell dose and how EC17 is administered, tumor-bearing mice receiving FITC-specific CAR-T cells can experience severe CRS and varying degrees of body weight loss. […] On the days immediately following each EC17 dose, animals were scored and rescue agents such as sodium fluorescein, folic acid and leucovorin were used to mitigate CRS toxicity. […]

MDA-MB-231 tumors = experiment: CAR-T therapy with EC17 fixed dose or dose de-escalation in mice bearing MDA-MB-231 tumors; format: in vivo
Excerpt: The effect of EC17 dose de-escalation was investigated on the anti-tumor activity and the toxicity (body weight changes) of CAR-T therapy. Two different anti-fluorescein scFv were used for the CAR constructions (FIG. 1). The first construct of CAR contains the following domains: antiFL(FITC-E2)scFv-IgG4 hinge (CH2 (L235D, N297Q)-CH3)-CD28 TM-4-1BB-CD3z-T2A-EGFRt. The second construct of CAR contains the following domains: antiFL(FITC-4M5.3)scFv-IgG4 hinge (CH2 (L235D, N297Q)-CH3)-CD28 TM-4-1BB-CD3z-T2A-EGFRt. The nucleic acid sequence and amino acid sequence of the CAR of each construct are shown as SEQ ID NOS:1 to 4. Human T cells were isolated, activated and transduced with a lentiviral vector carrying the appropriate CAR gene. CD4+ T cells with the CAR-modification and CD8+ T cells with the CAR-modification were isolated and cultured separately in vitro for about 7 days. CD4+ CAR-T cells and CD8+ CAR-T cells were mixed at a 1:1 ratio before i.v. administration for animal studies.
The second construct 4M5.3-CAR (antiFL(FITC-4M5.3) scFv-IgG4 hinge (CH2 (L235D, N297Q)-CH3)-CD28 TM-4-1BB-CD3z-T2A-EGFRt) was also evaluated. Mice bearing MDA-MB-231 tumors (150-250 mm^3) were used for in vivo studies to evaluate 4M5.3-CAR-T cells. […]

Question: Which results are given for `O=C([O-])c1ccccc1-c1c2ccc(=O)cc-2oc2cc([O-])ccc12.[Na+].[Na+]` [sodium fluorescein]?
Answer: CAR-T cell derived human cytokines after rescue (HOS-FRα tumor): acted very quickly to reduce CAR-T cell derived human cytokines; antitumor activity after NaFL rescue (MDA-MB-231 tumors; E2-CAR-T 10 and 20 million cells, EC17 500 nmol/kg SIW, NaFL 6 umol/kg): antitumor activity was maintained; antitumor activity after NaFL rescue (MDA-MB-231 tumors; E2-CAR-T 30 million cells with EC17 dose de-escalation): antitumor activity is maintained
